These results are taken from paper PMC10065799, “High-throughput profiling of sequence recognition by tyrosine kinases and SH2 domains using bacterial peptide display” (eLife, 2023).

Assay in all cases: pTyr-Var library bacterial peptide display kinase screen (enrichment scores)
One assay has as its target T1, c-Abl kinase domain (Mus musculus, UniProt P00520).
T1 sequence (P00520 242-493 limits assumed): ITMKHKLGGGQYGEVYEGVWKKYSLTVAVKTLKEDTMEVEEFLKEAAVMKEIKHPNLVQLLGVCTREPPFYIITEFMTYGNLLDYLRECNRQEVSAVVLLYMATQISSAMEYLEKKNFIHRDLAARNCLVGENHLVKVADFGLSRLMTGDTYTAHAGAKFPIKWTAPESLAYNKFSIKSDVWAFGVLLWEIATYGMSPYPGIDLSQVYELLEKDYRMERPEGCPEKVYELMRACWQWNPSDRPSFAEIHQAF
In kind it is biochemical.

Another assay relates to Fer kinase domain. In kind it is biochemical, mouse. The settings on record: sheet "Fer".
The target in a further assay is c-Src kinase domain (Homo sapiens, UniProt P12931). It counts as biochemical. The settings on record: sheet "Src".
The next assay has as its system EPHB1 kinase domain. In kind it is biochemical, human. The following applies: sheet EPHB1; effect of the variant peptide relative to its reference peptide in the pTyr-Var library screen (enrichment scores).
The mark [1] stands for this setting: fig5-data2, sheet "Abl", Screen for the variant/reference peptide pair, pTyr-Var library.
Setting [2] is: variant peptide relative to its reference peptide, pTyr-Var library screen enrichment.
Where [3] appears, read: variant peptide versus its reference peptide in the pTyr-Var library screen.
Where [4] appears, read: value of the variant peptide against its reference peptide in the pTyr-Var library screen with Fer.
Where [5] appears, read: sheet "Abl", effect of variant peptide relative to its reference peptide in pTyr-Var library screen (enrichment).
[6] abbreviates: effect of the variant peptide relative to its reference peptide in the pTyr-Var library screen.
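Note: log2 fold change in enrichment of variant over reference.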

The sequence VWHRRYKHTHE [CTCF_Y343_R339W] displayed a Screen at c-Abl kinase domain (setting [1]) of -0.9062.

With NTGDDYDLFGG [PTPN11_Y63_Y62D_YF], the Screen in the assay on Fer kinase domain (setting [2]) was -1.594; on c-Src kinase domain (setting [3]) it was -2.136.

Sequence ELTTCYRKKCS [CCBE1_Y70_C75S] came in with a Screen on c-Abl kinase domain (setting [1]) of -0.6974.

Turning to LKVQVYILGRE [ASS1_Y359_G356V], the Screen in the assay on Fer kinase domain (setting [4]) is 1.05.

In the case of EAIMTYVSSFF [ACTN4_Y260_K255E_YF], the Screen on c-Abl kinase domain (setting [1]) is given as -1.004.

For SWSTSYSGFRC [NKAPL_Y91_Y96C_YF], the figures for the Screen in the assay on Fer kinase domain (setting [4]) and on c-Src kinase domain (setting [3]) were -1.554 and -0.8065, respectively.

In turn, AKLDIYKRKVE [VWA3B_Y918_N916D] returned a Screen at c-Abl kinase domain (setting [5]) of 4.352.

Sequence VLAAQYTTVGR [SGSH_Y240_D235V] showed a Screen on c-Abl kinase domain (setting [5]) of 1.42.

At c-Abl kinase domain (setting [5]), LFLASYCIGGG [UBD_Y161_C160S] showed a Screen of 1.114.

On to FTGDIYSSSNL [LZTR1_Y141_N143S_YF], for which the Screen is on record as -0.3328 in the assay on Fer kinase domain (setting [4]) and -0.3427 at c-Src kinase domain (setting [6]).

The sequence RSSNTYTLMDV [ALCAM_Y298_T301M] showed a Screen on c-Src kinase domain (setting [6]) of -0.02147.

On c-Abl kinase domain (setting [5]), VVRSLYEDLED [VHL_Y185_I180V] gave a Screen of -2.047.

Regarding HFMELYDLNRD [BBS2_Y648_R643H_YF], on c-Src kinase domain (setting [6]), the Screen was 1.185.

Take VCDALYPPGPP [TTN_Y25928_A25923V]: the Screen at c-Abl kinase domain (setting [5]) is -1.728.

With AAVPAYDKIQV [STXBP2_Y401_R405Q], the Screen in the assay with Fer kinase domain (setting [2]) is 1.488.

In the case of EFFDGYWEFSV [ITGA2B_Y265_G267E_YF], the Screen on c-Src kinase domain (setting [6]) was 0.01389.

Sequence LITTPYIGFLG [KCNQ1_Y267_L266P] returned a Screen on c-Src kinase domain (setting [6]) of -1.29.

Regarding QHVPDYRQNGF [PCDHGA6_Y891_V895G_YF], the Screen on c-Abl kinase domain (setting [1]) was 0.1057.

As for LDTSQYFRLFN [CPT2_Y217_M214T], the Screen at c-Abl kinase domain (setting [1]) is recorded as -0.04852.

Regarding VPVPGYTKVPE [SPRR3_Y146_L149V], at c-Abl kinase domain (setting [5]), the Screen came to 2.059.

The sequence INMKEYCKKDF [NTN1_Y490_K489E_YF] displayed a Screen at c-Abl kinase domain (setting [1]) of 0.9886.

PFSSPYENSLI [EPOR_Y489_N487S_YF] showed a Screen with Fer kinase domain (setting [4]) of 0.2958.

Regarding VHLFAYDWISI [BEST1_Y227_G222V_YF], the Screen in the assay on Fer kinase domain (setting [4]) is recorded as -0.5402.

In the case of CPASVYTKRCS [CPT2_Y508_R503C], the Screen at c-Abl kinase domain (setting [1]) is given as -1.448.

Regarding NTEGGYCCICA [CRELD1_Y328_R329C], on c-Abl kinase domain (setting [1]), the Screen is -0.2438.

Regarding LTELGYSFVTT [ACTA1_Y200_R198L], the Screen in the assay with Fer kinase domain (setting [4]) is recorded as 0.9203.

Turning to GGPAGYLWRAS [PKLR_Y38_R40W], the Screen on c-Abl kinase domain (setting [1]) is given as 0.4229.

Take PQEVMYAQLDH [KIR3DL2_Y398_T397M]: the values for the Screen in the assay on Fer kinase domain (setting [4]) and on c-Src kinase domain (setting [6]) were 0.4165 and -0.9154, respectively.

On c-Src kinase domain (setting [3]), EVTRLYGSVCD [TC2N_Y154_K151T] displayed a Screen of 2.081.

At c-Abl kinase domain (setting [1]), RQIQSYTCEID [DES_Y331_H326R] returned a Screen of 0.08274.

As for KGEDFYCVTCP [FHL1_Y149_H154P], the Screen was 2.355 in the assay on Fer kinase domain (setting [4]), -1.428 at c-Abl kinase domain (setting [1]) and 2.585 on c-Src kinase domain (setting [6]).

Turning to QADIIYVNTQL [MERTK_Y872_V870I], the figures for the Screen in the assay with Fer kinase domain (setting [4]) and with EPHB1 kinase domain were -0.9597 and -0.9888, respectively.

As for HILFRYPKEFQ [IDS_Y234_P231L], the Screen on c-Src kinase domain (setting [6]) is 0.8356.

SVESPYGSVTF [NDRG2_Y47_T45S]: the results for the Screen in the assay on Fer kinase domain (setting [4]) and on c-Src kinase domain (setting [3]) were 0.8943 and 0.3806, respectively.

In the case of RSACTYLAPHL [PLK3_Y615_S618P], the values for the Screen with EPHB1 kinase domain and at c-Src kinase domain (setting [3]) were 2.327 and 2.785, respectively.

Take GHMFAYDWISI [BEST1_Y227_L224M_YF]: in the assay on Fer kinase domain (setting [4]), the Screen is -0.1339.

Consider TEDELYQLFLQ [RASGRP2_Y378_S381F], for which the Screen in the assay with Fer kinase domain (setting [2]) is recorded as 1.535; at c-Src kinase domain (setting [3]), 1.657.

As for QADVVYVNTQL [MERTK_Y872_I871V], the Screen with Fer kinase domain (setting [4]) is reported as -1.343; in the assay on EPHB1 kinase domain it was -1.929.

EGDGVYTLNDE [HP_Y125_N129D] showed a Screen at c-Src kinase domain (setting [6]) of -0.1677.

As for HFVDEYDRTIE [KRAS_Y32_P34R], the Screen on c-Abl kinase domain (setting [1]) worked out at 1.156.

As for CHKRTYKVTGL [TTN_Y21853_C21851R], the Screen on c-Abl kinase domain (setting [5]) was -1.801.

In the case of SVGGCYEQLFV [MC4R_Y41_D37V], the Screen in the assay with Fer kinase domain (setting [4]) is reported as -0.4465; on c-Src kinase domain (setting [6]) it was -0.5254.

In turn, HLVLNYGVCIC [JAK2_Y613_V617I] came in with a Screen in the assay with EPHB1 kinase domain of -0.07338.

In the case of ETKTPYTVILI [SBDS_Y128_R126T], the Screen at c-Abl kinase domain (setting [5]) came to 0.2291.

As for WNDPDYMDSRR [GAA_Y407_L405P], the Screen on c-Abl kinase domain (setting [1]) is listed as -1.862.

LDPDSYNVFEN [FOXC1_Y159_M161V]: at c-Abl kinase domain (setting [1]), the Screen was -0.1184.

Consider AVLSLYASGRN [ACTA1_Y145_T150N], for which the Screen at c-Abl kinase domain (setting [1]) is recorded as -2.061.
